#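 Values below derive from 48-hour exposures of cells grown in 96-well plates, with endpoints linearly interpolated between the two concentrations bracketing the appropriate inhibition level. Here, GI50 denotes the concentration required for 50% inhibition of growth. The concentration for full growth arrest is given as TGI.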
# Tests used:
# Experiment in all cases: NCI anticancer screen, dose series, 48 h
# [1] = test system: HOP-62 NSCLC
# [2] = test system: EKVX NSCLC
# [3] = test system: UO-31 renal
# [4] = test system: NCI-H460 lung
# [5] = test system: HT29 colon
# [6] = test system: A549 NSCLC
# [7] = test system: MOLT-4 leukemia
# [8] = test system: OVCAR-8 ovarian
# [9] = test system: SNB-75 CNS
# [10] = test system: UACC-257 melanoma
# [11] = test system: SN12C renal
# [12] = test system: OVCAR-4 ovarian
# [13] = test system: SNB-19 CNS
# [14] = test system: HS 578T breast
# [15] = test system: ACHN renal
# [16] = test system: HCT-15 colon
# [17] = test system: LOX IMVI melanoma
# [18] = test system: MDA-MB-231 breast
# [19] = test system: PC-3 prostate
# [20] = test system: IGROV1 ovarian
# [21] = test system: M14 melanoma
# [22] = test system: HOP-92 NSCLC
# [23] = test system: SW-620 colon
# [24] = test system: SR leukemia
# [25] = test system: NCI-H522 lung
# [26] = test system: K-562 leukemia
# [27] = test system: MCF7 breast
# [28] = test system: NCI-H23 lung
# [29] = test system: SF-295 CNS
# [30] = test system: CCRF-CEM leukemia
# [31] = test system: SK-MEL-5 melanoma
# [32] = test system: RPMI-8226 leukemia
# [33] = test system: U251 CNS
# [34] = test system: SK-OV-3 ovarian
# [35] = test system: HL-60(TB) leukemia
# [36] = test system: SF-539 CNS
# [37] = test system: BT-549 breast
# [38] = test system: HCT-116 colon
# [39] = test system: SK-MEL-28 melanoma
# [40] = test system: MDA-MB-435
# [41] = test system: COLO 205 colon
# [42] = test system: TK-10 renal
# [43] = test system: RXF 393 renal
# [44] = test system: UACC-62 melanoma
# [45] = test system: T-47D breast
# [46] = test system: OVCAR-3 ovarian
# [47] = test system: DU-145 prostate
# [48] = test system: SK-MEL-2 melanoma
# [49] = test system: KM12 colon
# [50] = test system: SF-268 CNS
# [51] = test system: 786-0 renal
# [52] = test system: HCC-2998 colon
# [53] = test system: NCI-H226 lung
# [54] = test system: MALME-3M melanoma
# [55] = test system: NCI/ADR-RES ovarian
# [56] = test system: CAKI-1 renal
# [57] = test system: A498 renal
# [58] = test system: OVCAR-5 ovarian
compound,measurement,setting,value
N=c1n(Cc2ccccc2)c(N)cc(=O)n1Cc1ccccc1,GI50,[1],1.35 µM
same,TGI,[1],2.68 µM
same,GI50,[2],2.12 µM
same,TGI,[2],5.42 µM
same,GI50,[3],2.35 µM
same,TGI,[3],5.37 µM
same,GI50,[4],1.08 µM
same,TGI,[4],2.75 µM
same,GI50,[5],3.81 µM
same,TGI,[5],12.8 µM
same,GI50,[6],1.19 µM
same,TGI,[6],2.56 µM
same,GI50,[7],1.24 µM
same,TGI,[7],5.38 µM
same,GI50,[8],3.18 µM
same,TGI,[8],11.4 µM
same,GI50,[9],3.08 µM
same,TGI,[9],16.1 µM
same,GI50,[10],3.1 µM
same,TGI,[10],11 µM
same,GI50,[11],1.34 µM
same,TGI,[11],18.1 µM
same,GI50,[12],2.41 µM
same,TGI,[12],10.5 µM
same,GI50,[13],5.04 µM
same,TGI,[13],18.2 µM
same,GI50,[14],1.04 µM
same,GI50,[15],0.747 µM
same,TGI,[15],5.25 µM
same,GI50,[16],3.49 µM
same,TGI,[16],12.3 µM
same,GI50,[17],3.14 µM
same,TGI,[17],10.9 µM
same,GI50,[18],7.45 µM
same,TGI,[18],42.5 µM
same,GI50,[19],2.74 µM
same,TGI,[19],19.9 µM
same,GI50,[20],4.04 µM
same,TGI,[20],> 59.8 µM
same,GI50,[21],4.72 µM
same,TGI,[21],17.8 µM
same,GI50,[22],2.06 µM
same,TGI,[22],10 µM
same,GI50,[23],3.05 µM
same,TGI,[23],11.1 µM
same,GI50,[24],2.28 µM
same,TGI,[24],7.53 µM
same,GI50,[25],0.503 µM
same,TGI,[25],2.42 µM
same,GI50,[26],3.82 µM
same,TGI,[26],> 100 µM
same,GI50,[27],2.73 µM
same,TGI,[27],18.4 µM
same,GI50,[28],1.48 µM
same,TGI,[28],5.96 µM
same,GI50,[29],2.68 µM
same,TGI,[29],19.1 µM
same,GI50,[30],1.63 µM
same,TGI,[30],8.65 µM
same,GI50,[31],1.9 µM
same,TGI,[31],3.95 µM
same,GI50,[32],3.58 µM
same,TGI,[32],18.1 µM
same,GI50,[33],3.32 µM
same,TGI,[33],11.7 µM
same,GI50,[34],2.99 µM
same,TGI,[34],8.44 µM
same,GI50,[35],2.21 µM
same,TGI,[35],4.93 µM
same,GI50,[36],1.96 µM
same,TGI,[36],4.25 µM
same,GI50,[37],2.65 µM
same,TGI,[37],10.3 µM
same,GI50,[38],2.74 µM
same,TGI,[38],10.7 µM
same,GI50,[39],3.58 µM
same,TGI,[39],11.7 µM
same,GI50,[40],3.54 µM
same,TGI,[40],13.8 µM
same,GI50,[41],3.97 µM
same,TGI,[41],13.8 µM
same,GI50,[42],2.22 µM
same,TGI,[42],7.47 µM
same,GI50,[43],1.87 µM
same,TGI,[43],5.71 µM
same,GI50,[44],3.55 µM
same,TGI,[44],12 µM
same,GI50,[45],3.01 µM
same,TGI,[45],12.4 µM
same,GI50,[46],3.34 µM
same,TGI,[46],8.43 µM
same,GI50,[47],2.28 µM
same,TGI,[47],6.47 µM
same,GI50,[48],2.79 µM
same,TGI,[48],7.18 µM
same,GI50,[49],4.75 µM
same,TGI,[49],29.3 µM
same,GI50,[50],1.37 µM
same,TGI,[50],3.86 µM
same,GI50,[51],2.97 µM
same,TGI,[51],9.76 µM
same,GI50,[52],4.96 µM
same,TGI,[52],29.1 µM
same,GI50,[53],3.45 µM
same,TGI,[53],9.56 µM
same,GI50,[54],2.94 µM
same,TGI,[54],6.87 µM
same,GI50,[55],2.33 µM
same,TGI,[55],5.71 µM
same,GI50,[56],2.94 µM
same,TGI,[56],16.6 µM
same,GI50,[57],5.04 µM
same,TGI,[57],47.5 µM
same,GI50,[58],4.27 µM
same,TGI,[58],14.9 µM
S=C(c1ccc2c(c1)OCO2)N1CCN(c2cccc(Cl)c2)CC1,GI50,[1],3.27 µM
same,TGI,[1],> 59.2 µM
same,GI50,[2],4.52 µM
same,TGI,[2],> 100 µM
same,GI50,[3],4.3 µM
same,TGI,[3],> 72.5 µM
same,GI50,[4],0.387 µM
same,TGI,[4],> 74.7 µM
same,GI50,[5],0.406 µM
same,TGI,[5],> 100 µM
same,GI50,[6],0.872 µM
same,TGI,[6],> 40.2 µM
same,GI50,[7],2.28 µM
same,TGI,[7],> 55.8 µM
same,GI50,[8],0.975 µM
same,TGI,[8],7.21 µM
same,GI50,[9],0.572 µM
same,TGI,[9],> 27.4 µM
same,TGI,[10],> 21.2 µM
same,GI50,[11],7.51 µM
same,TGI,[11],> 100 µM
same,GI50,[12],7.45 µM
same,TGI,[12],> 100 µM
same,GI50,[13],3.13 µM
same,TGI,[13],> 100 µM
same,GI50,[14],0.391 µM
same,TGI,[14],3.54 µM
same,GI50,[15],13.4 µM
same,TGI,[15],> 100 µM
same,GI50,[16],0.524 µM
same,TGI,[16],> 69.3 µM
same,GI50,[17],1.14 µM
same,TGI,[17],> 100 µM
same,GI50,[18],5.73 µM
same,TGI,[18],> 100 µM
same,GI50,[19],4.08 µM
same,TGI,[19],> 100 µM
same,GI50,[20],3.88 µM
same,TGI,[20],> 100 µM
same,GI50,[21],0.472 µM
same,TGI,[21],> 100 µM
same,GI50,[22],95.4 µM
same,TGI,[22],> 100 µM
same,GI50,[23],0.404 µM
same,TGI,[23],> 100 µM
same,GI50,[24],0.382 µM
same,GI50,[25],0.382 µM
same,GI50,[26],0.318 µM
same,TGI,[26],> 41.8 µM
same,GI50,[27],0.471 µM
same,TGI,[27],> 100 µM
same,GI50,[28],2.7 µM
same,TGI,[28],> 100 µM
same,GI50,[29],0.387 µM
same,TGI,[29],> 40.9 µM
same,GI50,[30],1.01 µM
same,TGI,[30],> 21.9 µM
same,GI50,[31],0.454 µM
same,TGI,[31],> 100 µM
same,GI50,[32],0.598 µM
same,TGI,[32],> 100 µM
same,GI50,[33],0.61 µM
same,TGI,[33],> 100 µM
same,GI50,[34],2.91 µM
same,TGI,[34],> 93.9 µM
same,GI50,[35],0.195 µM
same,TGI,[35],0.642 µM
same,GI50,[36],1.1 µM
same,TGI,[36],8.13 µM
same,GI50,[37],9.32 µM
same,TGI,[37],> 100 µM
same,GI50,[38],0.454 µM
same,TGI,[38],14.5 µM
same,GI50,[39],1.02 µM
same,TGI,[39],> 100 µM
same,GI50,[40],0.182 µM
same,TGI,[40],0.607 µM
same,GI50,[41],0.706 µM
same,GI50,[42],4.55 µM
same,TGI,[42],> 100 µM
same,GI50,[43],10.9 µM
same,TGI,[43],40.8 µM
same,GI50,[44],0.429 µM
same,TGI,[44],> 100 µM
same,GI50,[45],7.31 µM
same,TGI,[45],> 100 µM
same,GI50,[46],0.338 µM
same,TGI,[46],1.23 µM
same,GI50,[47],2.16 µM
same,TGI,[47],> 55.1 µM
same,GI50,[48],> 100 µM
same,TGI,[48],> 100 µM
same,GI50,[49],0.447 µM
same,TGI,[49],29.7 µM
same,GI50,[50],4.65 µM
same,TGI,[50],> 100 µM
same,GI50,[51],1.22 µM
same,TGI,[51],> 59.6 µM
same,GI50,[52],1.27 µM
same,TGI,[52],16.4 µM
same,GI50,[53],14 µM
same,TGI,[53],> 100 µM
same,GI50,[54],0.478 µM
same,TGI,[54],> 100 µM
same,GI50,[55],0.635 µM
same,TGI,[55],> 100 µM
same,TGI,[56],> 100 µM
same,GI50,[57],0.424 µM
same,TGI,[57],12.8 µM
same,GI50,[58],7.69 µM
same,TGI,[58],> 100 µM
